The results in this text go back to patent publication US20140038967A1, “NOVEL USE FOR IMIDAZOTRIAZINONES” (ALGIAX PHARMACEUTICALS GMBH, priority 2011, published 2014).

The subject of assay [1] is severe spinal cord contusion injury. In words: BBB open field locomotor rating scale after severe spinal cord contusion injury, intrathecal treatment. Format: in vivo, Lewis rats. The procedure:
Intrathecal treatment with a imidazotriazinone after severe spinal cord contusion injury in the rat.
(§1) Thirteen week-old female Lewis rats (Charles River, Sulzfeld Germany) were housed under a 12:12 h dark/light regime and allowed free access to water and food. After one week of habituation the animals underwent general anesthesia with a mixture of isoflurane and air (induction: 5% isoflurane, maintenance: 2.2% isofluorane). A T8 laminectomy was performed without rupturing the dura and a severe contusive SCI (25 gcm NYU/MASCIS II impactor) {Gruner, 1992 #3} was induced. Thereafter, the surgery continued with the procedure to position the silicon tube intrathecal catheter (7740, Alzet). Firstly, the catheter was filled with either the active or the vehicle solution. Secondly, another laminectomy was performed, again without rupturing the dura, at T11. At this position a small incision was made into the dura and the catheter was inserted at thoracic level 11 and pushed forward under lamina of T10-T9 to the lesion site at T8. […]
(§2) The BBB Open Field Locomotor Rating Scale: • The BBB locomotor rating scale was used to assess general locomotor performance (Basso et al., 1995). The score was assessed before injury and at 1, 3, 5, 7, 14, 21, 35, 42, 49, 56 and 63 days post operation (dpo) by 2 blinded observers.

Assay [2] shares this test system. In words: BBB open field locomotor rating scale after severe spinal cord contusion injury, oral treatment. Format: in vivo, Lewis rats. The procedure:
as §2
Oral Treatment with a Imidazotriazinone after Severe Spinal Cord Contusion Injury in the Rat.
Thirteen week-old female Lewis rats (Charles River, Sulzfeld Germany) were housed under a 12:12 h dark/light regime and allowed free access to water and food. After one week of habituation the animals underwent general anesthesia with a mixture of isoflurane and air (induction: 5% isoflurane, maintenance: 2.2% isofluorane). A Th10 laminectomy was performed without rupturing the dura and a severe contusive SCI (25 gcm NYU/MASCIS II impactor) (Gruner, 1992) was induced. After suturing muscle and skin, a subcutaneous (s.c.) injection of 5 ml of Ringers Lactate was given. Bladders were emptied manually 2 times a day until spontaneous voiding returned (usually within 1 week). The lesion severity was verified by the impact velocity and contusion depth of the impactor rod. Animals with an impact velocity error >5% were excluded from further analysis. After injury, individual rats were randomly assigned into a treatment group. The following groups were used: […]

The test system of assay [3] is embryonic DRG explants. Briefly: Axonal growth and Schwann cell expansion in embryonic DRG explants. Format: cell-based, Wistar rat. The method, then:
In vitro experiments with an imidazotriazinone to improve axonal growth and Schwann cell expansion in embryonic DRG explants of rats.
Outgrowth studies with 7-(4-tert-butylcyclohexyl)-5-ethyl-2-phenylimidazo[5,1-f][1,2,4]triazin-4(3H)-one or the vehicle were performed on embryonic neural tissue. DRGs of thoracic, lumbar, and sacral levels were prepared from Wistar rat embryos E18-20 and processed in ice cold 0.6% glucose in PBS. Harvested DRGs were freed from attaching nerve fibres, dissected, and transferred onto poly-D-lysine- and laminin-coated glass coverlips. To avoid cluster formation, a maximum of two DRG explants was transferred onto a single glass coverslip. Following an initial attachment phase, the pre-incubation medium was replaced by fully supplemented growth medium spiked with the test item (7-(4-tert-butylcyclohexyl)-5-ethyl-2-phenylimidazo[5,1-f][1,2,4]triazin-4(3H)-one groups 2 and 3) or vehicle (DMF, group 1) and incubated at 37° C./10% CO2 for additional 22 hours in vitro. Following 22 hours in vitro, the DRG explants were fluorescently labelled and axonal growth and Schwann cell expansion were quantitatively assessed.
The following experimental groups were included into the study: • Fully supplemented growth medium with 0.1% vehicle. • Fully supplemented growth medium with 0.1% vehicle and 7-(4-tert-butylcyclohexyl)-5-ethyl-2-phenylimidazo[5,1-f][1,2,4]triazin-4(3H)-one at a final concentration of 0.01 μM. • Fully supplemented growth medium with 0.1% vehicle and 7-(4-tert-butylcyclohexyl)-5-ethyl-2-phenylimidazo[5,1-f][1,2,4]triazin-4(3H)-one at a final concentration of 0.1 μM. • Fully supplemented growth medium with 0.1% vehicle and 7-(4-tert-butylcyclohexyl)-5-ethyl-2-phenylimidazo[5,1-f][1,2,4]triazin-4(3H)-one at a final concentration of 1 μM.

Assay [4] has as its system severe spinal cord contusion injury. Briefly: Explorative rearing test after severe spinal cord contusion injury, intrathecal treatment. It is filed as in vivo, Lewis rats. The note with it: intrathecal 100 μM over 14 days. The procedure:
as §1, with “T8. The catheter was then cut at the appropriate length and connected to a filled osmotic minipump (Alzet, model 2002) which was placed subcutaneously. The overlying tissue was sutured, and a subcutaneous (s.c.) injection of 5 ml of Ringers Lactate was given. The different solutions (active or vehicle) were infused at a flow rate of 0.5 μl/h over a time period of 14 days.” for “T8.”
When placed in a Plexiglas cylinder (18 cm diameter×35.0 cm height), animals spontaneously rear and contact the walls with their forepaws. Numbers, duration and types of rears were analyzed during the 3-min recorded observation period in the cylinder (Himes et al., 2006; Shumsky et al., 2003). […] The testing session was videotaped, and rearing behaviour was scored blindly at a later date. […]
Occasionally an animal progressed through several types of rears before touching down, in which case the time the animal spend in each rearing height was measured by counting the single video frames. Data were expressed as number of attempts (rears), attempt duration and the time each animal spend in the different rearing heights.

[5] abbreviates: tested 0.01, 0.1 and 1 μM, 22 hours in vitro.
The mark [6] stands for this setting: compared to vehicle control animals (FIG. 3).

For the compound `CCc1nc(C2CCC(C(C)(C)C)CC2)n2nc(-c3ccccc3)[nH]c(=O)c12` (stereo not drawn) [7-(4-tert-butylcyclohexyl)-5-ethyl-2-phenylimidazo[5,1-f][1,2,4]triazin-4(3H)-one], the “BBB locomotor rating scale, treatment effect over the entire time-period of the assessment” value in assay [1] (intrathecal 100 μM, 0.5 μl/h over 14 days, ANOVA-RM p=0.013 vs vehicle (FIG. 2)) is listed as “significant effect”. The “functional recovery after severe spinal cord contusion (overall, example 2)” value in assay [1] (intrathecal treatment, rat) is “significantly improves functional recovery”. In addition, the “BBB score at steady state” value in assay [2] (10 mg in vehicle, vehicle animals 7.8 (FIG. 4)) amounted to 9.0. Besides, the “BBB score at the end of the experiment compared to vehicle controls” value in assay [2] (10 mg, DPO 56, Students T-Test p=0.0012 (FIG. 5)) is “performed significantly better”. Moreover, in assay [3] (0.01-1 μM, 22 hours in vitro), the “Schwann cell numbers compared to vehicle-treated cultures” value is listed as “increased nearly fourfold”. For the same compound, the “Schwann cell expansion (numbers of Schwann cells outside the DRG explant core)” value in assay [3] (0.01-1 μM, 22 hours in vitro (FIG. 1B)) is “significant increase”. Also, the “growth area of outgrowing axons” value in assay [3] (0.01-1 μM, 22 hours in vitro, compared to vehicle-treated cultures (FIG. 1A)) is “significant increase”. Further, in assay [3] (setting [5]), the “concentration at which Schwann cell numbers were highest” value turned out to be 0.1 µM and the “concentration at which elevation of axonal growth areas was highest” value turned out to be 0.1 µM. Besides, in assay [4] (setting [6]), the “duration of rearing attempts” value is “longer in time” and the “height reached by forepaws in rearing attempts” value was “reached much higher”. In addition, the “types of rears performed” value in assay [4] (vehicle animals only crouch or rear) was “able to perform standing and even reaching”.
